Experimental data: patent US7851653B2, “Method of creating a solvent-free polymeric silicon-containing quaternary ammonium antimicrobial agent having superior sustained antimicrobial properties” (priority 2005, dated 2010)

What was measured:
E. coli [1] = assay: minimum inhibitory concentration (MIC) using E. coli; type: cell-based; settings: Escherichia coli
Procedure: Two volumes of 0.01N NH4OH in water were added slowly to one volume of a 42% by weight solution of 3-(trimethoxysilyl) propyldimethyloctadecyl ammonium chloride in methanol while stirring at room temperature. After ten minutes an additional two volumes of 0.01N NH4OH were added, stirring continued for an additional ten minutes. An additional five volumes of 0.1N NH4OH were added and stirred for an additional ten minutes. The methanol and NH4OH were removed by evaporation and the resulting polymer concentrated to 5% (wt/wt) in a rotary evaporator. The solution was dried to a methanol-free dry powder. Infrared and NMR spectroscopy confirmed the resultant powder was a homopolymer of (trimethoxysilyl) propyldimethyloctadecyl ammonium chloride.

E. coli [2] = assay: ASTM E 2149-01 antimicrobial activity of immobilized agents under dynamic contact conditions (dynamic shake flask test); type: cell-based
Procedure: (§1) Antimicrobial testing of the cast PVC films of Example 4 was carried out essentially as described in the ASTM designation E 2149-01 entitled, “Standard test Method for Determining the Antimicrobial Activity of Immobilized Antimicrobial Agents under Dynamic Contact Conditions.” This test is designed to evaluate the antimicrobial properties of materials, which contain active agents that are non-leaching. The method is described briefly below.
E. coli was grown overnight in rich media in an incubator-shaker at 37° C. while shaking at 300 rpm. After 18 hours of incubation, the bacteria were removed from the incubator and the optical density at 660 nm was measured. The culture was diluted until the optical density corresponds to a bacterial concentration of between 1×10^8 and 3×10^8 Colony Forming Units (CFU) per milliliter. The bacteria were further diluted in phosphate buffer (0.3 mM KPO4 at pH 7.2) such that the working concentration was 1×10^6 to 3×10^6 CFU/mL. Test specimens were added to sterile 15 mL test tubes followed by the addition of 3 mL of the bacterial solution. An aliquot was immediately removed from the flask, serially diluted, and used to inoculate Petri plates containing nutrient agar. The plates were incubated overnight and the concentration of bacteria (CFU/mL) was thus determined. This represents the Time 0 (T0) control. […]

[3] = carbon tetrachloride (CTC) activity of activated carbon, ASTM Method D3467; type: physicochemical
Procedure: Determining whether the impregnation of the carbon with antimicrobial agents had any adverse effect on the adsorption properties of the carbon was accomplished by testing the carbon tetrachloride (CTC) activity of the carbon prior to impregnation and following impregnation with the monomer and polymer forms of the antimicrobial agent. The CTC activity testing was performed by a vendor in accordance with ASTM Method […].

E. coli [4] = assay: ASTM E2149-01 on treated cotton swatches before and after accelerated laundering AATCC 61-1996; type: cell-based
Procedure: as §1
E. coli was grown overnight in rich media in an incubator-shaker at 37° C. while shaking at 300 rpm. After 18 hours of incubation, the bacteria were removed from the incubator and the optical density at 660 nm was measured. The culture was diluted until the optical density corresponds to a bacterial concentration of between 1×10^8 and 3×10^8 Colony Forming Units (CFU) per milliliter. The bacteria were further diluted in phosphate buffer (0.3 mM KPO4 at pH 7.2) such that the working concentration was 1×10^6 to 3×10^6 CFU/mL. Test specimens were added to sterile 15 mL test tubes followed by the addition of 3 mL of the bacterial solution. An aliquot was immediately removed from the flask, serially diluted, and used to inoculate Petri plates containing nutrient agar. The plates were incubated overnight and the concentration of bacteria (CFU/mL) was thus determined. This represents the Time 0 (T0) control. The tube containing the sample was placed in a shaking incubator at 37° C. and 300 rpm for one hour, at which time another aliquot was taken and tested as above. This is the treated sample (TF). All tests were controlled by the inclusion of a tube that contained an untreated sample and a flask with no sample but with bacteria. […] Log kill is a standard method to establish the ability of antimicrobial agents to destroy microorganisms. A log kill of 5.0 means that 100,000 microorganisms were destroyed on contact with the treated surface. A log kill of 6.0 establishes that 1,000,000 microorganisms were destroyed on contact with the treated surface. A log kill in excess of 5.0 is typically interpreted as an exceptionally active antimicrobial agent.
Unbleached cotton fabric was treated with various concentration levels of both monomeric 3-(trimethoxysilyl) propyldimethyloctadecyl ammonium chloride and the homopolymer of 3-(trimethoxysilyl) propyldimethyloctadecyl ammonium chloride as prepared in Example 2. In all cases 2 inch (5.1 cm) by 2 inch (5.1 cm) swatches of fabric were treated by immersing them in an aqueous solution containing the respective concentration of monomeric or polymeric 3-(trimethoxysilyl) propyldimethyloctadecyl ammonium chloride for a minimum of ten minutes. The swatches were subsequently removed from the aqueous solution and air-dried overnight. The swatches were analyzed for antimicrobial activity using ASTM E2149-01 as described in Example 5 followed by an accelerated laundering test according to AATCC 61-1996, which simulates multiple laundering effects. The swatches were again analyzed for antimicrobial activity according to ASTM E2149-01 to determine the effect of laundering on the antimicrobial activity. Antimicrobial activity is reported as percent reduction in E. coli concentration.

## CCCCCCCCCCCCCCCCCC[N+](C)(C)CCC[Si](OC)(OC)OC.[Cl-] [Monomer, 3-(trimethoxysilyl) propyldimethyloctadecyl ammonium chloride]
E. coli [1]
  MIC: 0.98 µg/mL
E. coli [2]; coconut shell activated carbon treated at 0.1 wt. % agent
  Log Kill: None
E. coli [2]; coconut shell activated carbon treated at 0.25 wt. % agent
  Log Kill: 6.11
[3]; activated carbon treated at 0.1 wt. % agent
  (Wt.) % CTC: 77.6 (Wt.) %
[3]; activated carbon treated at 0.25 wt. % agent
  (Wt.) % CTC: 73.4 (Wt.) %
[3]; activated carbon treated at 0.5 wt. % agent
  (Wt.) % CTC: 75.4 (Wt.) %
E. coli [4]; 0.010 % active in solution
  % Reduction, laundered: 0%
  % Reduction, unlaundered: 22%
E. coli [4]; 0.025 % active in solution
  % Reduction, laundered: 0%
  % Reduction, unlaundered: 38%
E. coli [4]; 0.050 % active in solution
  % Reduction, laundered: 98.86%
  % Reduction, unlaundered: 95%
E. coli [4]; 0.075 % active in solution
  % Reduction, laundered: 99.19%
  % Reduction, unlaundered: 99.59%
E. coli [4]; 0.100 % active in solution
  % Reduction, laundered: 99.91%
  % Reduction, unlaundered: 99.99%
E. coli [4]; 0.25 % active in solution
  % Reduction, laundered: 99.99%
  % Reduction, unlaundered: 99.99%
